Among the data in PubChem BioAssay AID252 (DTP/NCI, 2004) are T/C values, retold here.

For this assay, the system named is BDF1 mice, intracerebral L1210 leukemia, survival T/C. Description: NCI In Vivo Anticancer Drug Screen. Data for tumor model L1210 Leukemia (intracerebral) in B6D2F1 (BDF1) mice. Particulars: higher = longer survival. In short, it runs like this: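 Mice carrying transplanted tumour were dosed with compound; survival was recorded and expressed as treated-group value (T) divided by vehicle-control value (C).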

Setting [1] is: endpoint: mean survival time, dose: 40.0 mg/kg/injection, schedule: Q01DX001 (ip), vehicle: carboxymethylcellulose (CMC).
Setting [2] is: endpoint: median survival time, dose: 8.0 mg/kg/injection, schedule: Q01DX009 (ip), vehicle: water.
Setting [3] is: endpoint: median survival time, dose: 16.0 mg/kg/injection, schedule: Q01DX009 (ip), vehicle: water.
The mark [4] stands for this setting: endpoint: median survival time, dose: 32.0 mg/kg/injection, schedule: Q01DX009 (ip), vehicle: water.
Where [5] appears, read: endpoint: median survival time, dose: 64.0 mg/kg/injection, schedule: Q01DX009 (ip), vehicle: water.
[6] abbreviates: endpoint: mean survival time, dose: 72.0 mg/kg/injection, schedule: Q01DX001 (ip), vehicle: carboxymethylcellulose (CMC).

Where “and” joins values, the source holds several entries; their conditions need not be identical. Equal values may be shown once. Inconclusive results and toxic doses are left out.

In the case of `O=NN(CCCl)C(=O)Nc1c[nH]c(=O)[nH]c1=O`, the T/C is, setting by setting: (endpoint: mean survival time, dose: 4.4 mg/kg/injection, schedule: Q01DX001 (ip), vehicle: carboxymethylcellulose (CMC)) 103 % of control; (endpoint: mean survival time, dose: 6.7 mg/kg/injection, schedule: Q01DX001 (ip), vehicle: carboxymethylcellulose (CMC)) 101 % of control; (endpoint: mean survival time, dose: 10.0 mg/kg/injection, schedule: Q01DX001 (ip), vehicle: carboxymethylcellulose (CMC)) 102 % of control; (endpoint: mean survival time, dose: 15.0 mg/kg/injection, schedule: Q01DX001 (ip), vehicle: carboxymethylcellulose (CMC)) 103 % of control; (endpoint: mean survival time, dose: 20.0 mg/kg/injection, schedule: Q01DX001 (ip), vehicle: carboxymethylcellulose (CMC)) 98 % of control; (endpoint: mean survival time, dose: 30.0 mg/kg/injection, schedule: Q01DX001 (ip), vehicle: carboxymethylcellulose (CMC)) 107 % of control. Further, the T/C by setting is: under setting [1], 100 % of control; (endpoint: mean survival time, dose: 60.0 mg/kg/injection, schedule: Q01DX001 (ip), vehicle: carboxymethylcellulose (CMC)) 94 % of control.
Turning to `CC(=O)c1ccc(NC(=O)N(CCCl)N=O)cc1`, the T/C is 117 % of control (endpoint: mean survival time, dose: 37.5 mg/kg/injection, schedule: Q01DX001 (ip), vehicle: carboxymethylcellulose (CMC)); 118 % of control (endpoint: mean survival time, dose: 50.0 mg/kg/injection, schedule: Q01DX001 (ip), vehicle: carboxymethylcellulose (CMC)); 121 % of control (endpoint: mean survival time, dose: 75.0 mg/kg/injection, schedule: Q01DX001 (ip), vehicle: carboxymethylcellulose (CMC)).
Turning to `CNC(=O)N(C)N=O`, the T/C is, setting by setting: (endpoint: mean survival time, dose: 112.0 mg/kg/injection, schedule: Q01DX001 (ip), vehicle: carboxymethylcellulose (CMC)) 115 % of control; (endpoint: mean survival time, dose: 167.0 mg/kg/injection, schedule: Q01DX001 (ip), vehicle: carboxymethylcellulose (CMC)) 113 % of control; (endpoint: mean survival time, dose: 225.0 mg/kg/injection, schedule: Q01DX001 (ip), vehicle: carboxymethylcellulose (CMC)) 161 % of control; (endpoint: mean survival time, dose: 375.0 mg/kg/injection, schedule: Q01DX001 (ip), vehicle: carboxymethylcellulose (CMC)) 112 % of control.
With `S=P(N1CC1)(N1CC1)N1CC1`, the T/C (endpoint: mean survival time, dose: 10.0 mg/kg/injection, schedule: Q01DX001 (ip), vehicle: saline) was 154 % of control and the T/C (endpoint: mean survival time, dose: 15.0 mg/kg/injection, schedule: Q01DX001 (ip), vehicle: saline) is 228 % of control.
Turning to `O=NN(CCCl)C(=O)NC12CC3CC(CC(C3)C1)C2`, the T/C was 108 % of control (endpoint: mean survival time, dose: 26.0 mg/kg/injection, schedule: Q01DX001 (ip), vehicle: carboxymethylcellulose (CMC)); 112 % of control under setting [1]; 120 % of control (endpoint: mean survival time, dose: 90.0 mg/kg/injection, schedule: Q01DX001 (ip), vehicle: carboxymethylcellulose (CMC)).
Turning to `NCCCCS(=O)(=O)Nc1ccc(Nc2c3ccccc3nc3cc([N+](=O)[O-])ccc23)cc1`, the T/C (endpoint: mean survival time, dose: 25.0 mg/kg/injection, schedule: Q01DX009 (ip), vehicle: saline) was 97 % of control and the T/C (endpoint: mean survival time, dose: 50.0 mg/kg/injection, schedule: Q01DX009 (ip), vehicle: saline) was 99 % of control.
Regarding `CN(C)NCCC#N`, the T/C was 105 % of control (endpoint: mean survival time, dose: 27.0 mg/kg/injection, schedule: Q01DX Z (ip), vehicle: saline); 110 % of control (endpoint: mean survival time, dose: 40.0 mg/kg/injection, schedule: Q01DX Z (ip), vehicle: saline); 108 % of control (endpoint: mean survival time, dose: 60.0 mg/kg/injection, schedule: Q01DX Z (ip), vehicle: saline); 109 % of control (endpoint: mean survival time, dose: 90.0 mg/kg/injection, schedule: Q01DX Z (ip), vehicle: saline).
As for `Nc1nc(=O)n(C2OC(CO)C(O)C2O)cc1F` (stereo not given), the T/C runs as follows: (endpoint: median survival time, dose: 1.0 mg/kg/injection, schedule: Q01DX009 (ip), vehicle: saline) 116 % of control; (endpoint: median survival time, dose: 2.0 mg/kg/injection, schedule: Q01DX009 (ip), vehicle: saline) 124 % of control; (endpoint: median survival time, dose: 4.0 mg/kg/injection, schedule: Q01DX009 (ip), vehicle: saline) 124 % of control; (endpoint: median survival time, dose: 8.0 mg/kg/injection, schedule: Q01DX009 (ip), vehicle: saline) 153 % of control; under setting [2], 173 % of control; (endpoint: median survival time, dose: 16.0 mg/kg/injection, schedule: Q01DX009 (ip), vehicle: saline) 179 % of control. Also, the T/C by setting is: under setting [3], 212 % of control; (endpoint: median survival time, dose: 32.0 mg/kg/injection, schedule: Q01DX009 (ip), vehicle: saline) 201 % of control; under setting [4], 234 % of control; (endpoint: median survival time, dose: 64.0 mg/kg/injection, schedule: Q01DX009 (ip), vehicle: saline) 228 % of control; under setting [5], 247 % of control; (endpoint: median survival time, dose: 128.0 mg/kg/injection, schedule: Q01DX009 (ip), vehicle: water) 89 % of control. In addition, the T/C (endpoint: median survival time, dose: 512.0 mg/kg/injection, schedule: Q01DX009 (ip), vehicle: saline) is 98 % of control.
With `O=c1[nH]cc(N(CCCl)CCCl)c(=O)[nH]1`, the T/C is 114 % of control (endpoint: mean survival time, dose: 0.75 mg/kg/injection, schedule: Q01DX015 (ip), vehicle: carboxymethylcellulose (CMC)); 123 % of control (endpoint: mean survival time, dose: 1.1 mg/kg/injection, schedule: Q01DX015 (ip), vehicle: carboxymethylcellulose (CMC)); 106 % of control (endpoint: mean survival time, dose: 1.5 mg/kg/injection, schedule: Q01DX001 (ip), vehicle: carboxymethylcellulose (CMC)); 111 % of control (endpoint: mean survival time, dose: 2.4 mg/kg/injection, schedule: Q01DX001 (ip), vehicle: carboxymethylcellulose (CMC)); 102 % of control (endpoint: mean survival time, dose: 3.6 mg/kg/injection, schedule: Q01DX001 (ip), vehicle: carboxymethylcellulose (CMC)).
`O=NN(CCCl)C(=O)Nc1ccccc1`: the T/C was 97 % of control (endpoint: mean survival time, dose: 8.0 mg/kg/injection, schedule: Q01DX001 (ip), vehicle: carboxymethylcellulose (CMC)); 101 % of control (endpoint: mean survival time, dose: 12.0 mg/kg/injection, schedule: Q01DX001 (ip), vehicle: carboxymethylcellulose (CMC)); 107 % of control and 96 % of control (endpoint: mean survival time, dose: 18.0 mg/kg/injection, schedule: Q01DX001 (ip), vehicle: carboxymethylcellulose (CMC)); 95 % of control (endpoint: mean survival time, dose: 36.0 mg/kg/injection, schedule: Q01DX001 (ip), vehicle: carboxymethylcellulose (CMC)); 93 % of control under setting [6].
In the case of `O=NN(CCCl)C(=O)N[C@@H]1CCCC[C@H]1NC(=O)N(CCCl)N=O`, the T/C reads like this: (endpoint: mean survival time, dose: 67.0 mg/kg/injection, schedule: Q01DX001 (ip), vehicle: carboxymethylcellulose (CMC)) 118 % of control; under setting [6], 124 % of control; (endpoint: mean survival time, dose: 100.0 mg/kg/injection, schedule: Q01DX001 (ip), vehicle: carboxymethylcellulose (CMC)) 124 % of control; (endpoint: mean survival time, dose: 150.0 mg/kg/injection, schedule: Q01DX001 (ip), vehicle: carboxymethylcellulose (CMC)) 162 % of control; (endpoint: mean survival time, dose: 240.0 mg/kg/injection, schedule: Q01DX001 (ip), vehicle: carboxymethylcellulose (CMC)) 166 % of control.
Turning to `C[C@H](CN1CC(=O)NC(=O)C1)N1CC(=O)NC(=O)C1`, the T/C is 107 % of control under setting [2]; 115 % of control and 116 % of control under setting [3]; 124 % of control under setting [4]; 123 % of control under setting [5]; 109 % of control and 95 % of control (endpoint: median survival time, dose: 256.0 mg/kg/injection, schedule: Q01DX009 (ip), vehicle: water).
Consider `Nc1ncnc2c1ccn2C1OC(CO)C(O)C1O` (stereo not given), for which the T/C by setting is: (endpoint: mean survival time, dose: 1.2 mg/kg/injection, schedule: Q01DX001 (ip), vehicle: carboxymethylcellulose (CMC)) 96 % of control; (endpoint: mean survival time, dose: 1.9 mg/kg/injection, schedule: Q01DX001 (ip), vehicle: carboxymethylcellulose (CMC)) 97 % of control; (endpoint: mean survival time, dose: 2.9 mg/kg/injection, schedule: Q01DX001 (ip), vehicle: carboxymethylcellulose (CMC)) 100 % of control.
In the case of `CSCS(=O)C[C@H](CO)NC(=O)/C=C/c1c(C)[nH]c(=O)[nH]c1=O` (stereo not given in full), the T/C (endpoint: mean survival time, dose: 1.1 mg/kg/injection, schedule: Q01DX001 (ip), vehicle: carboxymethylcellulose (CMC)) is 95 % of control; the T/C (endpoint: mean survival time, dose: 1.7 mg/kg/injection, schedule: Q01DX001 (ip), vehicle: carboxymethylcellulose (CMC)) was 101 % of control; the T/C (endpoint: mean survival time, dose: 2.6 mg/kg/injection, schedule: Q01DX001 (ip), vehicle: carboxymethylcellulose (CMC)) is 98 % of control.
